Laboratory results taken from PMC6691788, “Design and synthesis of phthalazine-based compounds as potent anticancer agents with potential antiangiogenic activity via VEGFR-2 inhibition” (Journal of Enzyme Inhibition and Medicinal Chemistry, 2019).

Experiments:
[1] = test system: K-562; test: NCI 60 cell panel SRB screen; type: cell-based; conditions: Homo sapiens, K562; K-562, single dose 10 μM; read-out: percent cell growth promotion
[2] = test system: RPMI-8226; test: NCI 60 cell panel SRB screen; type: cell-based; conditions: Homo sapiens; RPMI-8226, single dose 10 μM; read-out: percent cell growth promotion
[3] = test system: A549/ATCC; test: NCI 60 cell panel SRB screen; type: cell-based; conditions: Homo sapiens, single dose 10 μM, read-out: percent cell growth promotion
[4] = test system: HOP-62; test: NCI 60 cell panel SRB screen; type: cell-based; conditions: Homo sapiens; HOP-62, single dose 10 μM; read-out: percent cell growth promotion
[5] = test system: NCI-H226; test: NCI 60 cell panel SRB screen; type: cell-based; conditions: Homo sapiens; NCI-H226, single dose 10 μM; read-out: percent cell growth promotion
[6] = test system: NCI-H23; test: NCI 60 cell panel SRB screen; type: cell-based; conditions: Homo sapiens; NCI-H23, single dose 10 μM; read-out: percent cell growth promotion
[7] = test system: NCI-H522; test: NCI 60 cell panel SRB screen; type: cell-based; conditions: Homo sapiens; NCI-H522, single dose 10 μM; read-out: percent cell growth promotion
[8] = test system: HCC-2998; test: NCI 60 cell panel SRB screen; type: cell-based; conditions: Homo sapiens; HCC-2998, single dose 10 μM; read-out: percent cell growth promotion
[9] = test system: SF-295; test: NCI 60 cell panel SRB screen; type: cell-based; conditions: Homo sapiens; SF-295, single dose 10 μM; read-out: percent cell growth promotion
[10] = test system: SNB-19; test: NCI 60 cell panel SRB screen; type: cell-based; conditions: Homo sapiens; SNB-19, single dose 10 μM; read-out: percent cell growth promotion
[11] = test system: OVCAR-8; test: NCI 60 cell panel SRB screen; type: cell-based; conditions: Homo sapiens; OVCAR-8, single dose 10 μM; read-out: percent cell growth promotion
[12] = test system: NCI/ADR-RES; test: NCI 60 cell panel SRB screen; type: cell-based; conditions: Homo sapiens, single dose 10 μM, read-out: percent cell growth promotion
[13] = test system: ACHN; test: NCI 60 cell panel SRB screen; type: cell-based; conditions: Homo sapiens, single dose 10 μM, read-out: percent cell growth promotion
[14] = test system: UO-31; test: NCI 60 cell panel SRB screen; type: cell-based; conditions: Homo sapiens; UO-31, single dose 10 μM; read-out: percent cell growth promotion
[15] = test system: PC-3; test: NCI 60 cell panel SRB screen; type: cell-based; conditions: Homo sapiens; PC-3, single dose 10 μM; read-out: percent cell growth promotion
[16] = test system: MCF7; test: NCI 60 cell panel SRB screen; type: cell-based; conditions: Homo sapiens, MCF7, read-out: percent cell growth promotion
[17] = test system: MDA-MB 231/ATCC; test: NCI 60 cell panel SRB screen; type: cell-based; conditions: Homo sapiens, MDA-MB-231, read-out: percent cell growth promotion
[18] = test system: T-47D; test: NCI 60 cell panel SRB screen; type: cell-based; conditions: Homo sapiens, T47D, read-out: percent cell growth promotion
[19] = test system: full NCI 60 cell panel; test: NCI 60 cell panel SRB screen, whole panel; type: cell-based, human; conditions: for activity at 10 µM: Homo sapiens, 60 cell, mean over the panel, single dose 10 μM, read-out: Mean percent cell growth promotion; for cell growth inhibition, in words: single dose 10 µM
From the text: Aiming to evaluate the general antitumour activity of the synthesised phthalazines, the structures of the final compounds were submitted to National Cancer Institute “NCI” (www.dtp.nci.nih.gov), Bethesda, Maryland, USA. In vitro NCI anticancer screening involves two-stage process, the first stage started with the evaluation of the selected candidates against the full NCI 60 cell lines panel representing leukaemia, non-small cell lung cancer, melanoma, colon, CNS, breast, ovarian, renal and prostate cancers at a single dose of 10 µM. NCI selection is based on degree of structure variation and application of computer modelling techniques to prioritise compounds based on their ability to add diversity to the NCI small molecule compound collection.
Eight compounds (6b, 6e, 7b, 13a, 13c, 16a, 16d and 17a) were selected by NCI for further 5 log dose screening against full NCI 60 cell panel. All the 60 cell lines, representing nine tumour subpanels (leukaemia, non-small cell lung cancer, colon cancer, CNS cancer, prostate cancer, melanoma, ovarian cancer, renal cancer and breast cancer) which were incubated at five different concentrations (0.01, 0.1, 1, 10 and 100 µM) of each of the test compounds. The outcomes were used to create log concentration vs % growth inhibition curves, then three response parameters (GI50, TGI and LC50) were calculated for each cell line, (Tables S4 and S5 in Supplementary material).
The human tumor cell lines of the cancer-screening panel were grown in RPMI 1640 medium containing 5% fetal bovine serum and […] L-glutamine. For a typical screening experiment, cells are inoculated into 96 well microtiter plates in 100 ml at plating densities ranging from 5000 to 40,000 cells/well depending on the doubling time of individual cell lines. After cell inoculation, the microtiter plates are incubated at 37 °C, 5% CO2, 95% air and 100%
relative humidity for 24 h prior to addition of experimental drugs. After 24 h, two plates of each cell line are fixed in situ with TCA, to represent a measurement of the cell population for each cell line at the time of drug addition (Tz). Experimental drugs are dissolved in dimethyl sulfoxide at 400-fold the desired final maximum test concentration and stored frozen prior to use. At the time of drug addition, an aliquot of frozen concentrate is thawed and diluted to twice the desired final maximum test concentration with complete medium containing […] Gentamicin. Additional four, 10-fold or ½log serial dilutions are made to provide a total of five drug concentrations plus control. Aliquots of […] of these different drug dilutions are added to the appropriate microtiter wells already containing 100 ml of medium, resulting in the required final drug concentrations. Following drug addition, the plates are incubated for an additional 48 h at 37 °C, 5% CO2, 95% air, and 100% relative humidity. For adherent cells, the assay is terminated by the addition of cold TCA. Cells are fixed in situ by the gentle addition of […] of cold 50% (w/v) TCA (final concentration,10% TCA) and incubated for 60 min at 4 °C. The supernatant is discarded, and the plates are washed five times with tap water and air dried. Sulforhodamine B (SRB) solution (100 ml) at 0.4% (w/v) in 1% acetic acid is added to each well, and plates are incubated for 10 min at room temperature. After staining, unbound dye is removed by washing five times with 1% acetic acid and the plates are air dried. Bound stain is subsequently dissolved with 10 μM trizma base, and the absorbance is read on an automated plate reader at a wavelength of 515 nm. For suspension cells, the methodology is the same except that the assay is terminated by fixing settled cells at the bottom of the wells by gently adding […] of 80% TCA (final concentration, 16% TCA). […]

O=C(Nc1ccc(Nc2nncc3ccccc23)cc1)c1ccc(Cl)cc1 [Compound 5b, 4-Chloro-N-(4-(phthalazin-1-ylamino)phenyl)benzamide]
activity at 10 µM [1]: 102% | activity at 10 µM [2]: 104% | activity at 10 µM [3]: 101% | activity at 10 µM [4]: 91.8% | activity at 10 µM [5]: 77.9% | activity at 10 µM [6]: 98.5% | activity at 10 µM [7]: 96.8% | activity at 10 µM [8]: 113% | activity at 10 µM [9]: 102% | activity at 10 µM [10]: 104% | activity at 10 µM [11]: 96.2% | activity at 10 µM [12]: 103% | activity at 10 µM [13]: 112% | activity at 10 µM [14]: 78.6% | activity at 10 µM [15]: 91.6% | activity at 10 µM [16]: 93% | activity at 10 µM [17]: 93.3% | activity at 10 µM [18]: 97.6% | activity at 10 µM [19]: 101% | cell growth inhibition, in words [19]: Neither of the biarylamides (5b, and 5d) nor the piperazines (8a, 8d, 8f, 8g, 8h and 8i) showed any significant cell line growth inhibition

Cc1nnc(Nc2ccc(NC(=O)c3ccc(Cl)cc3)cc2)c2ccccc12 [Compound 5d, 4-Chloro-N-(4–(4-methylphthalazin-1-ylamino)phenyl)benzamide]
activity at 10 µM [1]: 101% | activity at 10 µM [2]: 89.3% | activity at 10 µM [3]: 97.9% | activity at 10 µM [4]: 88.8% | activity at 10 µM [5]: 76.3% | activity at 10 µM [6]: 95% | activity at 10 µM [7]: 94.7% | activity at 10 µM [8]: 125% | activity at 10 µM [9]: 105% | activity at 10 µM [10]: 92% | activity at 10 µM [11]: 93.1% | activity at 10 µM [12]: 96% | activity at 10 µM [13]: 111% | activity at 10 µM [14]: 57.8% | activity at 10 µM [15]: 72.6% | activity at 10 µM [16]: 84.5% | activity at 10 µM [17]: 73% | activity at 10 µM [18]: 79.8% | activity at 10 µM [19]: 93% | cell growth inhibition, in words [19]: Neither of the biarylamides (5b, and 5d) nor the piperazines (8a, 8d, 8f, 8g, 8h and 8i) showed any significant cell line growth inhibition
